One assay deals with bacterial biofilms. Put plainly: Bacterial biofilm assays (sustained inhibition and/or disruption). The assay is classed as cell-based, Staphylococcus aureus. Particulars: for anti-biofilm properties against bacterial biofilms: individually, about 0.1 to about 5.0% weight to volume (cystathionine 0.2%), at least one of the two assays; for support (improve) bacterial biofilm growth: based on the two assays (sustained inhibition and/or disruption). The method, then:
(§1) For fungal biofilm assays, all solutions were prepared in RPMI 1640 medium. All bacterial biofilm solutions were prepared in Trypic Soy Broth (TSB), supplemented with 1% glucose (henceforth referred to as TSB-G). All subsequent procedures were performed in a manner that maintained sterility. A solution of each amino acid to be tested was prepared in weight to volume concentrations ranging from 0.1-5.0%. Amino acids were also tested in combinations. Compound solutions were homogenized with gentle agitation in the dark (4° C., 24 hours) before use.
(§2) All biofilm assays were performed using 384-well non-tissue culture treated polystyrene plates. The fungal species tested are as follows: Candida albicans, Candida guilliermondii Candida parapsilosis, Candida glabrata, Candida tropicalis and Candida dubliniensis. The bacterial species tested are as follows: Staphylococcus aureus (standard wild type and methicillin-resistant strain USA300), Escherichia coli, Pseudomonas aeruginosa and Staphylococcus epidermidis.
(§3) Bacterial strains were streaked on Blood Agar plates (5% sheep blood in Tryptic Soy Broth) and incubated at 37° C. for 24 hours. A single colony from each strain to be tested was inoculated in a TSB broth and grown for 12 hours, at 37° C. with shaking (225 rpm).
(§4) For the bacterial biofilm inhibition assays, 1 μL of saturated overnight cell culture was added to either 80 μL of TSB-G, or TSB-G supplemented with the amino acid compound solution to be tested, in a 384-well plate. The cells were allowed to adhere to the plate for 60 minutes at 37° C. without shaking. The media was carefully aspirated and 80 μL of TSB-G, or TSB-G supplemented with the amino acid compound solution was added to the plate. The plate was further incubated for 24 hours at 37° C. without shaking. Media was carefully aspirated and the biofilm was measured for bacterial cell concentration by optical density at 600 nm. Eight or twelve replicates were performed for each tested condition and the reported values were normalized to the control (TSB-G media only).
(§5) For the bacterial biofilm disruption assays, 80 μL of TSB-G was added to the plate, along with 1 μL of overnight cell culture. The cells were allowed to adhere to the plate for 60 minutes at 37° C. without shaking. The media was carefully aspirated and 80 μL of TSB-G was added to the plate. The plate was further incubated for 24 hours at 37° C. without shaking. Media was carefully aspirated from the mature biofilm and 80 μL of TSB-G, or TSB-G supplemented with the amino acid to be tested, was gently added to the plate. The plate was further incubated for 24 hours at 37° C. without shaking. Media was aspirated and the biofilm was measured for bacterial cell concentration by optical density at 600 nm. Twelve replicates were performed for each tested condition and the reported values were normalized to the control (TSB-G media only).

The test system of assay [1] is S. aureus biofilm. Put plainly: Bacterial biofilm inhibition assay. The assay is classed as cell-based, Staphylococcus aureus. Particulars: for activation at 1 %: Staphylococcus aureus, read-out: Promote B Biofilm. As for the experimental part: as §1, §2, §3, §4
In assay [2] the test system is S. aureus biofilm. The assay can be described thus: Bacterial biofilm disruption assay. Format: cell-based. Conditions: Staphylococcus aureus; for activation at 1 %: read-out: Promote B Biofilm. The method, then: as §1, §2, §3, §5
The subject of assay [3] is bacterial and fungal biofilms. The assay can be described thus: In vitro testing on bacterial and fungal biofilms. Conditions: for neutral, effect on bacterial or fungal biofilms: both assays (sustained inhibition and disruption); for effect on bacterial and fungal biofilm (in words): in vitro. The assay is classed as cell-based. The method, then: as §1, §2
Fungal strains were streaked on Yeast Peptone Dextrose (YPD) agar plates and incubated at 30° C. for 48 hours. A single colony from each strain to be tested was inoculated into YPD broth and grown for 12 hours, at 30° C., shaking at 225 rpm. For the fungal biofilm inhibition assay, 1 μl of saturated overnight cell culture was added to either 80 μL of RPMI-1640 or RPMI-1640 supplemented with the amino acid compound solution to be tested, in a 384-well plate. The cells were allowed to adhere to the plate for 90 minutes at 37° C. with shaking (350 rpm). Loosely bound cells were washed once with phosphate buffered saline (PBS) and 80 ul of RPMI-1640, or RPMI-1640 supplemented with the amino acid compound solution was added to the plate. The plate was further incubated for 24 hours at 37° C. with shaking (350 rpm). Media was carefully aspirated and the biofilm was measured for fungal cell concentration by optical density at 600 nm. Twelve replicates were performed for each tested condition and the reported values were normalized to the control (RPMI-1640 media only).
For the fungal biofilm disruption assays, 80 μL of RPMI-1640 was added to the plate, along with 1 μL of overnight cell culture. The cells were allowed to adhere to the plate for 90 minutes at 37° C. with shaking (350 rpm). Loosely bound cells were washed once with PBS and 80 μL of RPMI-1640 was added to the plate. The plate was further incubated for 24 hours at 37° C. with shaking (350 rpm). Media was carefully aspirated from the mature biofilm and 80 μL of RPMI-1640, or RPMI-1640 supplemented with the amino acid compound solution to be tested, was gently added to the plate. The plate was further incubated for 24 hours at 37° C. with shaking (350 rpm). Media was carefully aspirated and the biofilm was measured for fungal cell concentration by optical density at 600 nm. Twelve replicates were performed for each tested condition and the reported values are normalized to the control (RPMI-1640 media only).
as §3
as §4, with “nm.” for “nm. Eight or twelve replicates were performed for each tested condition and the reported values were normalized to the control (TSB-G media only).”

The mark [4] stands for this setting: sustained inhibition assay, S. aureus, 1% amino acid, p≤0.001.
Setting [5] is: disruption assay, S. aureus, 1% amino acid, p≤0.001.

Entries after “also recorded” stand apart in the source; their conditions may differ.

With `NC(CCCC(=O)O)C(=O)O` (stereo not drawn) [2 Aminoadipic Acid, 2-aminoadipic acid], the “anti-biofilm properties against bacterial biofilms” value in the assay with bacterial biofilms is reported as “anti-biofilm properties against bacterial biofilms”. In addition, in the assay on S. aureus biofilm [1] (setting [4]), the “Reduce B Biofilm” value was “• (a single dot (●) signifies an effect in a range of about 10 to about 30% change)”. In addition, the inhibition at 1 % in the assay with S. aureus biofilm [2] (disruption assay, S. aureus, 1% amino acid, p≤0.001, read-out: Reduce B Biofilm) is 10 to 30%.

`CCC(N)C(=O)O` (stereo not drawn) [2 Aminobutyric Acid, 2-aminobutyric acid]: the “neutral, effect on bacterial or fungal biofilms” value (from here on “neutral, effect”) in assay [3] is reported as “no effect on bacterial or fungal biofilms”.

Consider `C[C@H](N)C(=O)O` [Alanine, L-alanine], for which the “support (improve) bacterial biofilm growth” value (shortened to “support”) in the assay on bacterial biofilms is recorded as “support (improve) bacterial biofilm growth”. For the same compound, the activation at 1 % with S. aureus biofilm [2] (setting [5]) was 10 to 30%. Besides, the “effect on bacterial and fungal biofilm (in words)” value (shortened to “effect … (in words)”) in assay [3] was “promote bacterial and fungal biofilm”.

Take `NC(=O)C[C@H](N)C(=O)O` [Asparagine, L-asparagine]: the “support” value with bacterial biofilms is “support (improve) bacterial biofilm growth”. In the assay on S. aureus biofilm [1] (setting [4]), the activation at 1 % fell in the range of 10 to 30%.

For the compound `NCCC(=O)O` [Beta-Alanine, Beta-alanine], the “anti-biofilm properties against bacterial biofilms” value in the assay with bacterial biofilms is on record as “anti-biofilm properties against bacterial biofilms”. Also, in the assay with S. aureus biofilm [1] (setting [4]), the “Reduce B Biofilm” value was “• (a single dot (●) signifies an effect in a range of about 10 to about 30% change)”.

`NC(=O)NCCC[C@H](N)C(=O)O` [Citrulline, L-citrulline]: in the assay on bacterial biofilms, the “support” value was “support (improve) bacterial biofilm growth”. For the same compound, the activation at 1 % in the assay with S. aureus biofilm [1] and in the assay with S. aureus biofilm [2] was 10 to 30% each time.

As for `NC(=O)CC[C@H](N)C(=O)O` [Glutamine, L-glutamine], the “neutral, effect” value in assay [3] is on record as “no effect on bacterial or fungal biofilms”.

For the compound `N[C@@H](Cc1c[nH]cn1)C(=O)O` [Histidine, L-histidine], in assay [3], the “neutral, effect” value is listed as “no effect on bacterial or fungal biofilms”.

With `CC[C@H](C)[C@H](N)C(=O)O` [Isoleucine, L-isoleucine], in the assay with bacterial biofilms, the “support” value was “support (improve) bacterial biofilm growth”. The activation at 1 % in the assay on S. aureus biofilm [2] (setting [5]) was 10 to 30%. Also, the “effect … (in words)” value in assay [3] is “promote bacterial and fungal biofilm”.

Consider `CSCC[C@H](N)C(=O)O` [Methionine, L-methionine], for which the “support” value in the assay on bacterial biofilms was “support (improve) bacterial biofilm growth”. Moreover, the activation at 1 % in the assay with S. aureus biofilm [1] (setting [4]) is 10 to 30%. In addition, the “effect … (in words)” value in assay [3] is “promote bacterial and fungal biofilm”.

For `NCCC[C@H](N)C(=O)O` [Ornithine, L-ornithine], the “support” value in the assay on bacterial biofilms is on record as “support (improve) bacterial biofilm growth”. In addition, the activation at 1 % in the assay with S. aureus biofilm [2] (setting [5]) lay within 10 to 30%.

For `O=C(O)[C@@H]1CCCN1` [Proline, L-proline], in the assay on bacterial biofilms, the “support” value was “support (improve) bacterial biofilm growth”. For the same compound, the activation at 1 % in the assay with S. aureus biofilm [2] (setting [5]) was in the range of 10 to 30%. Besides, the “effect … (in words)” value in assay [3] is “promote bacterial and fungal biofilm”.

Regarding `C[C@@H](O)[C@H](N)C(=O)O` [Threonine, L-threonine], the “support” value in the assay on bacterial biofilms was “support (improve) bacterial biofilm growth”. In the assay with S. aureus biofilm [1] (setting [4]), the activation at 1 % was 10 to 30%. In addition, in assay [3], the “effect … (in words)” value is “promote bacterial and fungal biofilm”.

For the compound `N[C@@H](Cc1c[nH]c2ccccc12)C(=O)O` [Tryptophan, L-tryptophan], the “support” value in the assay with bacterial biofilms was “support (improve) bacterial biofilm growth”. In the assay on S. aureus biofilm [1], the activation at 1 % lay in the range of 10 to 30%. Also, the “effect … (in words)” value in assay [3] was “promote bacterial and fungal biofilm”.

For the compound `N[C@@H](Cc1ccc(O)cc1)C(=O)O` [Tyrosine, L-tyrosine], in assay [3], the “neutral, effect” value is on record as “no effect on bacterial or fungal biofilms”; the “effect … (in words)” value is “neutral effect on biofilm”.

On to `OCC(O)CO` [glycerol], for which the “effect … (in words)” value in assay [3] was “no measurable effect; also recorded: not found to have antibiofilm effect”.

(Values after US20180153840A1, “THE COMPOSITIONS OF GLYCEROL AND /OR NON-TOXIC AMINO ACIDS FOR INHIBITING AND DESTROYING BIOFILM, INCLUDING RELATED METHODS” (priority 2015, published 2018).)
